Results reported in patent US4110327A, “2,3 Diketo-piperazinocarbonylamino alkanoic acids and derivatives” (Toyama Chemical Co., Ltd., priority 1974, dated 1978).
Values after ≈ are worked out from the molar mass of the structure shown.

How the values were obtained:
[1] = tested on: Klebsiella pneumoniae; assay: MIC against clinical isolates; type: cell-based; conditions: unit assumed
[2] = tested on: Proteus mirabilis; assay: MIC against clinical isolates; type: cell-based; conditions: clinical isolate, unit assumed
[3] = tested on: Staphylococcus aureus; assay: MIC against clinical isolates; type: cell-based; conditions: unit assumed
[4] = tested on: Proteus rettgeri; assay: MIC against clinical isolates; type: cell-based; conditions: clinical isolate, unit assumed
[5] = tested on: Proteus vulgaris 3027; assay: MIC against standard strain, plate method; type: cell-based; conditions: Proteus vulgaris 3027, standard strain; unit assumed
Summary of the method: (§1)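 Minimum inhibitory concentrations were determined on agar plates of heart infusion medium (pH 7.4) inoculated with 10^4 cells per plate.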

[6] = tested on: Escherichia coli NIHJ; assay: MIC against standard strain, plate method; type: cell-based; conditions: unit assumed
Summary of the method: as §1

[7] = tested on: Klebsiella pneumoniae; assay: MIC against standard strain, plate method; type: cell-based; conditions: unit assumed
Summary of the method: as §1

[8] = tested on: Staphylococcus aureus 209p; assay: MIC against standard strain, plate method; type: cell-based; conditions: unit assumed
Summary of the method: as §1

[9] = tested on: Pseudomonas aeruginosa I.F.O.; assay: MIC against standard strain, plate method; type: cell-based; conditions: unit assumed
Summary of the method: as §1

[10] = tested on: Escherichia coli; assay: MIC against clinical isolates; type: cell-based; conditions: unit assumed
[11] = tested on: Proteus vulgaris; assay: MIC against clinical isolates; type: cell-based; conditions: clinical isolate, unit assumed
[12] = tested on: Pseudomonas aeruginosa; assay: MIC against clinical isolates; type: cell-based; conditions: unit assumed
[13] = tested on: Salmonella typhi-murium; assay: MIC against clinical isolates; type: cell-based; conditions: unit assumed
[14] = tested on: Proteus morganii; assay: MIC against clinical isolates; type: cell-based; conditions: clinical isolate, unit assumed
[15] = tested on: β-lactamase; assay: Resistant activity against β-lactamase, iodometric assay; type: biochemical, Pseudomonas aeruginosa GN 238; conditions: relative to Potassium Penicillin G = 100
Experimental: (3) Resistant activity against β-lactamase, Pseudomonas aergionan GN 238:
The resistant activity of each compound against β-lactamase was measured in the manner described below.
β-Lactamase was prepared from Pseudomonas aeruginosa GN 238. This microorganism was cultured in 100 ml of a medium containing 2 g of yeast extract, 10 g of polypeptone, 2 g of glucose, 7 g of disodium hydrogen phosphate, 2 g of potassium dihydrogen phosphate, 1.2 g of ammonium sulfate and 0.4 g of magnesium sulfate, per liter, in a 500-ml Erlenmeyer flask for 6 hrs. at 37° C with shaking. The resulting cells were collected by centrifugation (5,000 r.p.m. × 10 min.), washed three times with 0.1 M phosphate buffer (pH 7.0). Subsequently, the cells were subjected to sonication (20 KHz, 20 min.) and then centrifuged at 15,000 r.p.m. for 60 min. By using the supernatant of enzyme fluid, the resistance of each compound against β-lactamase was determined by the iodometric assay method. Each numeral shown in Table 7 is a relative activity value calculated by assuming as 100 the activity of the control Potassium Penicillin G.

[16] = tested on: Salmonella typhi; assay: MIC against clinical isolates; type: cell-based; conditions: unit assumed
[17] = tested on: Shigella sonnei; assay: MIC against clinical isolates; type: cell-based; conditions: unit assumed
Experimental: (§2) The minimum inhibitory concentrations (MIC) was determined by the plate method disclosed in "Chemotherapy" (Japan), Vol. 16, (1968), pages 98 - 99. The culture medium used was a Heart infusion agar (pH 7.4). The number of the cells per plate used in the inoculum as 10^4 (10^6 cells/ml).
(§3) MIC was determined in the same manner as in the preceding paragraph (1).

[18] = tested on: Shigella flexneri; assay: MIC against clinical isolates; type: cell-based; conditions: unit assumed
Experimental: as §2, §3

[19] = Acute toxicity LD50 i.v. in mouse; conditions: in vivo, iv
Description: The present penicillins and cephalosporins have generally low toxicity.

Q: Which MIC ([1]; clinical isolate GN 917) does the source give for CCCCCCN1CCN(C(=O)N[C@@H](C(=O)N[C@@H]2C(=O)N3[C@@H]2SC(C)(C)[C@@H]3C(=O)O)c2ccccc2)C(=O)C1=O (single isomer, unassigned) [compound 46] here?
A: Its MIC is 0.79 µg/mL (≈ 1.38 µM).

Q: And the MIC ([1]; clinical isolate GN 4081)?
A: The MIC was 12.5 µg/mL (≈ 21.8 µM).

Q: What about the MIC ([1]; clinical isolate GN 4117) of the same compound?
A: The MIC was 12.5 µg/mL (≈ 21.8 µM).

Q: What about the MIC [2] of the same compound?
A: The MIC was < 0.4 µg/mL.

Q: And the MIC ([3]; clinical isolate F-1)?
A: The MIC was 6.25 µg/mL (≈ 10.9 µM).

Q: What about the MIC ([3]; clinical isolate F-3) of the same compound?
A: The MIC was 0.79 µg/mL (≈ 1.38 µM).

Q: And the MIC ([3]; clinical isolate F-4)?
A: The MIC was 6.25 µg/mL (≈ 10.9 µM).

Q: What about the MIC ([3]; clinical isolate F-5) of the same compound?
A: Its MIC is > 200 µg/mL.

Q: And the MIC ([3]; clinical isolate MS 8596)?
A: Its MIC is 3.13 µg/mL (≈ 5.46 µM).

Q: What about the MIC ([3]; clinical isolate MS 8619) of the same compound?
A: The MIC was < 0.4 µg/mL.

Q: What about the MIC ([3]; clinical isolate MS 8713) of the same compound?
A: The MIC was 6.25 µg/mL (≈ 10.9 µM).

Q: What about the MIC [4] of the same compound?
A: The MIC was 3.13 µg/mL (≈ 5.46 µM).

Q: What about the MIC [5] of the same compound?
A: The MIC was 0.4 µg/mL (≈ 0.697 µM).

Q: And the MIC [6]?
A: The MIC was < 0.1 µg/mL.

Q: What about the MIC [7] of the same compound?
A: The MIC was 0.4 µg/mL (≈ 0.697 µM).

Q: What about the MIC [8] of the same compound?
A: The MIC was 0.2 µg/mL (≈ 0.349 µM).

Q: What about the MIC [9] of the same compound?
A: Its MIC is 6.25 µg/mL (≈ 10.9 µM).

Q: What about the MIC ([10]; clinical isolate GN 3435) of the same compound?
A: Its MIC is < 0.4 µg/mL.

Q: What about the MIC ([10]; clinical isolate GN 3452) of the same compound?
A: Its MIC is 0.79 µg/mL (≈ 1.38 µM).

Q: What about the MIC ([10]; clinical isolate GN 3465) of the same compound?
A: Its MIC is 6.25 µg/mL (≈ 10.9 µM).

Q: And the MIC ([10]; clinical isolate GN 3481)?
A: The MIC was 3.13 µg/mL (≈ 5.46 µM).

Q: What about the MIC ([10]; clinical isolate GN 3611) of the same compound?
A: The MIC was > 200 µg/mL.

Q: And the MIC ([10]; clinical isolate K-1)?
A: Its MIC is 0.79 µg/mL (≈ 1.38 µM).

Q: What about the MIC ([10]; clinical isolate K-2) of the same compound?
A: The MIC was 0.79 µg/mL (≈ 1.38 µM).

Q: And the MIC ([10]; clinical isolate K-3)?
A: The MIC was 50 µg/mL (≈ 87.2 µM).

Q: What about the MIC ([10]; clinical isolate K-4) of the same compound?
A: Its MIC is < 0.4 µg/mL.

Q: And the MIC [11]?
A: The MIC was < 0.4 µg/mL.

Q: And the MIC ([12]; clinical isolate GN 82)?
A: Its MIC is 6.25 µg/mL (≈ 10.9 µM).

Q: What about the MIC ([12]; clinical isolate GN 163) of the same compound?
A: The MIC was 6.25 µg/mL (≈ 10.9 µM).

Q: What about the MIC ([12]; clinical isolate GN 221) of the same compound?
A: The MIC was 12.5 µg/mL (≈ 21.8 µM).

Q: What about the MIC ([12]; clinical isolate GN 376) of the same compound?
A: The MIC was 25 µg/mL (≈ 43.6 µM).

Q: And the MIC ([12]; clinical isolate GN 383)?
A: The MIC was 25 µg/mL (≈ 43.6 µM).

Q: And the MIC ([12]; clinical isolate GN 1035)?
A: Its MIC is 50 µg/mL (≈ 87.2 µM).

Q: And the MIC ([12]; clinical isolate GN 1091)?
A: Its MIC is 12.5 µg/mL (≈ 21.8 µM).

Q: What about the MIC ([12]; clinical isolate GN 2565) of the same compound?
A: Its MIC is 12.5 µg/mL (≈ 21.8 µM).

Q: What about the MIC ([12]; clinical isolate GN 2987) of the same compound?
A: The MIC was 6.25 µg/mL (≈ 10.9 µM).

Q: What about the MIC ([12]; clinical isolate GN (number not given; Table 5-3)) of the same compound?
A: Its MIC is 12.5 µg/mL (≈ 21.8 µM).

Q: And the MIC ([12]; clinical isolate S-1)?
A: Its MIC is 50 µg/mL (≈ 87.2 µM).

Q: And the MIC ([12]; clinical isolate S-2)?
A: Its MIC is 50 µg/mL (≈ 87.2 µM).

Q: What about the MIC ([12]; clinical isolate S-3) of the same compound?
A: The MIC was 50 µg/mL (≈ 87.2 µM).

Q: What about the MIC ([12]; clinical isolate S-4) of the same compound?
A: Its MIC is 50 µg/mL (≈ 87.2 µM).

Q: What about the MIC ([13]; clinical isolate SL 858) of the same compound?
A: Its MIC is < 0.4 µg/mL.

Q: And the MIC ([13]; clinical isolate SL 2136)?
A: The MIC was 50 µg/mL (≈ 87.2 µM).

Q: What about the MIC [14] of the same compound?
A: The MIC was < 0.4 µg/mL.

Q: What about the Relative activity [15] of the same compound?
A: Its Relative activity is 12%.

Q: And the MIC ([16]; clinical isolate SL 819)?
A: The MIC was 1.57 µg/mL (≈ 2.74 µM).

Q: What about the MIC ([16]; clinical isolate SL 2169) of the same compound?
A: Its MIC is 0.79 µg/mL (≈ 1.38 µM).

Q: And the MIC ([17]; clinical isolate JS 11232)?
A: The MIC was 12.5 µg/mL (≈ 21.8 µM).

Q: What about the MIC ([17]; clinical isolate JS 11755) of the same compound?
A: Its MIC is 0.79 µg/mL (≈ 1.38 µM).

Q: What about the MIC ([18]; clinical isolate JS 11215) of the same compound?
A: Its MIC is 6.25 µg/mL (≈ 10.9 µM).

Q: And the MIC ([18]; clinical isolate JS 11839)?
A: Its MIC is 0.79 µg/mL (≈ 1.38 µM).

Q: For CN1CCN(C(=O)N[C@@H](C(=O)N[C@@H]2C(=O)N3[C@@H]2SC(C)(C)[C@@H]3C(=O)O)c2ccccc2)C(=O)C1=O, which LD50 [19] is on record?
A: The LD50 was > 5000 mg/kg.

Q: With CCN1CCN(C(=O)N[C@@H](C(=O)N[C@@H]2C(=O)N3[C@@H]2SC(C)(C)[C@@H]3C(=O)O)c2ccccc2)C(=O)C1=O as the compound, how does the LD50 [19] read?
A: The LD50 was > 5000 mg/kg.
